Reference: patent US6034134A, “1-Amino-alkylcyclohexane NMDA receptor antagonists” (Merz + Co. GmbH & Co., priority 1998, dated 2000)
Structures can show the parent of a compound that is named as a salt. Where two headings read alike, the source gives them in different places.

Tests used:
[1] = target: NMDA receptor; assay: [3H]-(+)-MK-801 binding to rat cortical membranes; details: for Ki: read-out: MK-801 Ki, Table 9, Cheng-Prusoff with Kd for MK-801 of […]; for IC50: read-out: [3H] MK-801 IC50, Table 7, footnote calls the values Ki
Experimental: Male Sprague-Dawley rats (200-250 g) were decapitated and their brains were removed rapidly. The cortex was dissected and homogenized in 20 volumes of ice-cold 0.32 M sucrose using a glass-Teflon homogenizer. The homogenate was centrifuged at 1000 ×g for 10 minutes. The pellet was discarded and the supernatant centrifuged at 20,000 ×g for 20 minutes. The resulting pellet was re-suspended in 20 volumes of distilled water and centrifuged for 20 minutes at 8000 ×g. Then the supernatant and the buffy coat were centrifuged three times (48,000 ×g for 20 minutes) in the presence of 50 mM Tris-HCl, pH 8.0. All centrifugation steps were carried out at 4° C. After resuspension in 5 volumes of 50 mM Tris-HCl, pH 8.0 the membrane suspension was frozen rapidly at -80° C. On the day of assay the membranes were thawed and washed four times by resuspension in 50 mM Tris-HCl, pH 8.0 and centrifugation at 48,000 ×g for 20 minutes. The final pellet was suspended in assay buffer. The amount of protein in the final membrane preparation was determined according to the method of Lowry with some modifications. The final protein concentration used for our studies was between 250-500 μg/ml.
Membranes were re-suspended and incubated in 50 mM Tris-HCl, pH 8.0. […] Incubations were terminated using a Millipore filter system. The samples were rinsed three times with 2.5 ml ice cold assay buffer over glass fiber filters obtained from Schleicher & Schuell under a constant vacuum. Filtration was performed as rapidly as possible. Following separation and rinse, the filters were placed into scintillation liquid (5 ml; Ultima Gold) and radio activity retained on the filters was determined with a conventional liquid scintillation counter (Hewlett Packard, Liquid Scintillation Analyser).
(§1) IC50 s in patch clamp, excitotoxicity, and binding studies were calculated according to the four parameter logistic equation using the Grafit computer program (Erithacus Software, England). Ki value for binding studies were then determined according to Cheng and Prusoff. Binding values presented are means±SEM of 3-5 determinations (each performed in duplicate). […] Pearson product moment correlation analysis (Sigma Stat, Jandel Scientific) was used to compare in vitro potencies and in vivo anticonvulsant activity.

[2] = system: cortical neurones; assay: Excitotoxicity: glutamate toxicity in cultured cortical neurones (MTT); assay type: cell-based, rat; details: for IC50: Rattus norvegicus, Cortical neurone
Experimental: Cortical neurones were obtained from cerebral cortices of 17/18 day old fetal rats (Wistar), in general following the dissociation procedure described by. After short trypsinization and gentle trituration with fire-polished Pasteur pipettes, the cell suspension was washed by centrifugation. Cells were suspended in serum-free Neurobasal medium with B27 supplement (GIBCO) before plating onto poly-L-lysine (Sigma; 0.2 mg/ml, 20 h, 4° C.) and laminin (Sigma; 2 μg/ml, 1 h, 37° C.)-coated 96-well plates (Falcon, Primaria) at a density of 5×10^4 cells/well. Cortical neurones were maintained at 37° C. in humidified 10% CO2 /90% air. […] The medium was changed first after 4 days in vitro and then every 4 days by replacing 2/3 of the medium with astrocyte-conditioned medium. Cortical neurones between day 12 and 14 in culture were used for the experiments.
New-born rat astrocytes were isolated non-enzymatically according to the method of [24]. Briefly, both hemispheres were dissected from 2-day-old rats, passed through an 80 μm gauze, and triturated with Pasteur pipettes. Cell suspension was made in Dulbecco's modified essential medium (DMEM, Gibco) supplemented with 10% fetal calf serum (FCS, Hyclone), 2 mM glutamine (Gibco) and 50 μg/ml gentamycin and transferred into untreated, plastic culture flasks (Corning; […]). Two days after plating the flasks were shaken for 10 minutes on a rotary platform (150 U/min) to remove microglial cells. The cultures were grown to confluency within 14 days, and the culture medium was changed twice weekly. Thereafter, the glial monolayers were extensively washed with serum-free Neurobasal medium (Gibco) to remove the serum. Flasks were then shaken several times to remove oligodendrocytes and neurones. To obtain conditioned medium from primary astrocytes, the cultures were incubated with fresh Neurobasal medium supplemented with B27 andglutamine. Every 2-3 days the conditioned medium was collected and replaced by fresh medium up to 4 times.
Exposure to EAA was performed in serum-free Neurobasal medium containing 100 μM glutamate and the drug to be tested. After 20 h of incubation, the cytotoxic effect was morphologically examined under a phase contrast microscope and biochemically quantified by measuring cell viability with the MTT test (Promega). This calorimetric assay measures the reduction of a tetrazolium component (MTT) into an insoluble formazan product by the mitochondria of living cells. After incubation of the cortical neurones with the dye solution for approximately 1-4 hours, a solubilization solution was added to lyse the cells and solubilize the colored product (incubation overnight at 37° C., 10% CO2, 90% RH). These samples were then read using an Elisa plate reader (Thermomax, MWG Biotech) at a wavelength of 570 nm. The amount of color produced was directly proportional to the number of viable cells.
as §1

[3] = Maximal electroshock (MES)-induced convulsions in mice; assay type: in vivo; details: for ED50: Mus musculus
Experimental: (§2) NMR female mice (18-28 g) housed 5 per cage were used for the maximal electroshock (MES) and motor impairment tests. […] All compounds were dissolved in 0.9% saline.
(§3) The MES test was performed together with tests for myorelaxant action (traction reflex) and motor coordination (rotarod). For the traction reflex test mice were placed with their forepaws on a horizontal rod and were required to place all 4 paws on the wire within 10 seconds. To test ataxia (motor coordination) mice were placed on rotarod (5 rpm) and were required to remain on the rod for 1 minute. […] These tests were followed by MES (100 Hz, 0.5 second shock duration, 50 mA shock intensity, 0.9 ms impulse duration, Ugo Basile) applied through corneal electrodes. The presence of tonic convulsions was scored (tonic extension of hind paws with minimum angle to the body of 90°). The aim was to obtain ED50 s for all parameters scored (anticonvulsive activity and motor side effects) with use of the Litchfield Wilcoxon test for quantal dose responses. Division of the ED50 for side effects (ataxia or myorelaxation) by the ED50 for antagonism of electroshock convulsions was used as a therapeutic index (TI). […]

[4] = Traction reflex test (myorelaxant action) in mice, therapeutic index versus MES; assay type: in vivo; details: ED50 for traction reflex impairment divided by ED50 for MES; for TI Tract: 30 min; for selectivity ratio at 0.5 h: mouse, in vivo, ip, read-out: TI Tract
Experimental: as §2, §3

[5] = Table 7, 100 μM glutamate, 20 h, read-out: Glut. Tox. IC50
[6] = Table 9, 100 μM glutamate, read-out: Glut Tox IC50
[7] = ip, 0.5 h, Table 7, mice, i.p., 30 min before, read-out: MES ED50
[8] = ip, 0.5 h, Table 8, mice, i.p., 95% confidence limits in parentheses, read-out: MES ED50
[9] = 20 h, read-out: Glut. Tox. IC50

SMILES	Ki [1] [µM]	IC50 [1] [µM]	IC50 [2, 5] [µM]	IC50 [2, 6] [µM]	ED50 [3, 7] [mg/kg]	ED50 [3, 8] [mg/kg]	TI Tract [4]	selectivity ratio at 0.5 h [4]	IC50 [2, 9] [µM]	IC50 ([2]; read-out: Glut Tox IC50) [µM]	ED50 ([3]; ip, 0.5 h, read-out: MES ED50) [mg/kg]	MES ED50 ([3]; Table 8, mice, i.p., 95% confidence limits in parentheses, 30 min)	neuroprotection in vitro (in words) [2]	ED50 ([3]; iv, read-out: ED50 (anticonvulsive) following i.v. administration) [mg/kg]	ED50 ([3]; po, read-out: ED50 (anticonvulsive) following p.o. administration) [mg/kg]	ED50 ([3]; sc, read-out: ED50 (anticonvulsive) following s.c. administration) [mg/kg]
CCNC1(C)CC(C)(C)CC(C)(C)C1 [Mrz 2/639, N-ethyl-1-amino-1,3,3,5,5-pentamethylcyclohexane]	4.17	3.3	5.7	6.33	5.5	5.87	2.6									
CNC1(C)CC(C)(C)CC(C)(C)C1.Cl [Mrz 2/640, N,1,3,3,5,5-hexamethylcyclohexanamine hydrochloride]	4.83	3.7	8.3	8.35	8.2	8.18	2.3									
C[C@@H]1CCC[C@@](C)(N)C1 (relative stereo) [Mrz 2/625]	52.6	46.8	39.4	39.4	130	130	0.5									
CC1CC(C)CC(C)(N)C1 (centres unmarked) [Mrz 2/616, 1-amino-1,3,5-trimethylcyclohexane]	10.4	15	9.1	9.1	24	24	1.0									
C[C@@H]1CC(C)(C)C[C@@](C)(N)C1 (relative stereo) [Mrz 2/607]	7.74	8.2	10.1	10.1	22.9	22.9	1.3									
CCCC1(C)CC(C)(C)CC(C)(N)C1 (centres unmarked) [Mrz 2/614]	13.6	13.6	> 10	1.26	23.5	23.5		1.9								
CCC[C@@H]1CC(C)(C)C[C@@](C)(N)C1 (relative stereo) [Mrz 2/635]	15	7.8	8.2	8.18	31.6	31.6	1.3									
CC1(C)CCCC(C)(N)C1 (centres unmarked) [Mrz 2/621]	32.2	36.7						1.8	> 100	> 100	36.9	36.9 (22.6-60.3) mg/kg				
CC1(C)CC(C)(C)CC(C)(N)C1 [Mrz 2/579, 1-amino-1,3,3,5,5-pentamethylcyclohexane]	1.47	1.9	2.2	2.16	3.6	3.6	2.9						most potent	2.5	13.7	4.6
C[C@@H]1C[C@H](C)C[C@@](C)(N)C1 [MRZ 2/680, 1,trans-3,trans-5-Trimethylcyclohexylamine hydrochloride]	30			35.6		34.5		0.7								
C[C@@H]1C[C@H](C)C[C@](C)(N)C1 [MRZ 2/681, 1,cis-3,cis-5-Trimethylcyclohexylamine hydrochloride hydrate]	19.2			26.9		27.9		2.1								
CC12CC3CC(C)(C1)CC(N)(C3)C2 [Memantine, reference compound]	2.45	0.7			6.9	6.9		2.9	1.3	1.4						
CC[C@H]1CC(C)(C)C[C@](C)(N)C1 [MRZ 2/682, (1R, 5S) trans-3-Ethyl-1,5,5-trimethylcyclohexylamine hydrochloride]	1.99			3.11		7.6		2.7								
CCCC1(CCC)CC(C)(C)CC(C)(N)C1 (centres unmarked) [Mrz 2/626]	16.5	11.6	19	19	41.2	41.2		1.1								
CC[C@H]1CC(C)(C)C[C@@](C)(N)C1 (relative stereo) [Mrz 2/632]	2.88	2	10.9	11.2	11	11	2.7									
CCC1(N)CC(C)(C)CC(C)(C)C1 [Mrz 2/600, 1-amino-1-ethyl-3,3,5,5-tetramethylcyclohexane]	2.28	2.4	2.1	2.1	22.6	22.6	0.6									
CC1(C)CC(N)CC(C)(C)C1 [Mrz 2/557]	19.9	17.6	6.7	6.7	43.9	43.9	1.0									
CCC1(C)CCCC(C)(N)C1 (centres unmarked) [Mrz 2/620]	25.5	32.2	38.4	38.4	41.3	41.3		1.6								
C[C@H]1CC(C)(C)C[C@@](C)(N)C1 (relative stereo) [Mrz 2/643]	4.66	3.6	12	12	18.6	18.6		1.3								
